Source: the supplement of paper PMC3974653
Where a name gives a salt, the structure may show the parent alone.

System: MTT (mouse pheochromocytoma)
Assay: IC50 of cell viability (ATP content)
Conditions: (24 or 48 h)
Summary of the method: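 The IC50 was fitted with a four-parameter logistic equation to normalised CellTiter-Glo ATP luminescence from MTT mouse pheochromocytoma cells. These cells, in white 1536-well plates, had been treated for 24 or 48 hrs with library compounds at 8 final concentrations between 0.5 nM and 46 µM, and luminescence was read after 15 minutes. Positive-control wells served as 100% and DMSO wells as 0%.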

Compound | IC50 of cell viability
CC(=O)NC\1=N\C(=O)N(\C=C1)C2COC(COC(=O)C3=CC=CC=C3)O2 (stereo not drawn) | > 46 µM
C=C1CC2C3C=C(C)C4=CC(=O)CCC4(C)C3CCC2(C)[C@@]1(OC(C)=O)C(C)=O (stereo partly drawn) | > 46 µM
CC(C)C1NC(=O)[C@@H](NC(=O)C2=C3\N=C\4/C(=C(/C)C(=O)\C(=C4C(=O)N[C@H]5[C@@H](C)OC(=O)C(C(C)C)N(C)C(=O)CN(C)C(=O)[C@@H]6CCCN6C(=O)C(NC5=O)C(C)C)N)OC3=C(C)C=C2)[C@@H](C)OC(=O)C(C(C)C)N(C)C(=O)CN(C)C(=O)[C@@H]7CCCN7C1=O (stereo partly drawn) | > 46 µM
Cc1c(O)cc2c(c1C)O[C@](C)(CCC[C@H](C)CCC[C@H](C)CCCC(C)C)CC2 | > 46 µM
CC(C)OC(=O)c1cc2c(OCC(O)CNC(C)(C)C)cccc2[nH]1 (stereo not drawn) | > 46 µM
CC1(C)CO[C@@H](CC(=O)O)CN1 | > 46 µM
Cc1cccc(Nc2cc(Cl)nc(SCC(=O)O)n2)c1C | > 46 µM
CCC(=O)OC1CCC2C3CCc4cc(O)ccc4C3CCC12C (stereo not drawn) | > 46 µM
CCC(=O)Oc1ccc2c(c1)CCC1C2CC[C@]2(C)C(OC(=O)CC)CCC12 (stereo partly drawn) | > 46 µM
CCC(=O)OC1[C@@H](N2CCCCC2)C[C@H]2[C@@H]3CC[C@H]4C[C@H](OC(C)=O)[C@@H](N5CCCCC5)C[C@]4(C)[C@H]3CC[C@]12C (stereo partly drawn) | > 46 µM
CCC(=O)O[C@@](Cc1ccccc1)(c1ccccc1)[C@H](C)CN(C)C | > 46 µM
CCc1ccc(S(=O)(=O)O)cc1 | > 46 µM
CCCc1c(OCCCCc2nnn[nH]2)ccc(C(C)=O)c1O | > 46 µM
CCCCCCC(=O)CCCCCC/C=C/C[C@@H](O)[C@H](O)[C@@](N)(CO)C(=O)O | > 46 µM
CCCCCCCCCCCCCCCCCC[N+](C)(C)CCC[Si](OC)(OC)OC | > 46 µM
CCCCNc1ccc(C(=O)OCCN(C)C)cc1 | > 46 µM
CCCSc1cc(OC)c(CCN)cc1OC | > 46 µM
CCN(CC)C(=O)c1cc([S+](=O)([O-])Cc2ccccc2)c(N2CCC(c3ccccc3)CC2)cc1N(CC)CCN(C)C | > 46 µM
CC[C@@H](O)C(C[C@@H](C)N(C)C)(c1ccccc1)c1ccccc1 | > 46 µM
CC[C@H](O)C(C[C@H](C)N(C)C)(c1ccccc1)c1ccccc1 | > 46 µM
CC[C@H](OC(C)=O)C(C[C@H](C)NC)(c1ccccc1)c1ccccc1 | > 46 µM

Compound | IC50 of cell viability
CC[N+](CC)(CC(=O)Nc1c(C)cccc1C)Cc1ccccc1.O=C([O-])c1ccccc1 | > 46 µM
CN1C(=O)COc2c(C(=O)NC3CN4CCC3CC4)cc(Cl)cc21 (stereo not drawn) | > 46 µM
CN1C2CCC1CC(OC(=O)c1cc(Cl)cc(Cl)c1)C2 (stereo not drawn) | > 46 µM
COc1cc(CCN)c(OC)cc1Br | > 46 µM
COc1ccc(C2NC(=S)N3C(c4ccc(OC)c(OC)c4)NC(=S)N23)cc1OC (stereo not drawn) | > 46 µM
COc1cc2c(cc1OC)[C@@H](c1ccccc1)CN(C)CC2.O=C(O)/C=C\C(=O)O | > 46 µM
COc1ccccc1N1CCN(CCCCNC(=O)c2ccc(-c3ccc(C(C)=O)cc3)cc2)CC1 | > 46 µM
C[C@@]12CCC[C@H]1[C@@H]1CC[C@H]3C[C@@H](O)CC[C@]3(C)[C@H]1CC2 | > 46 µM
Cc1c(C(=O)NCCO)[n+](=O)c2ccccc2n1[O-] | > 46 µM
Cl.Cn1ccc2cc3c(cc21)CCN3C(=O)Nc1cccnc1 | > 46 µM
ClC1=C(Cl)C2(Cl)C(CBr)CC1(Cl)C2(Cl)Cl (stereo not drawn) | > 46 µM
F/C(COc1ccc2c(c1)[nH]c1ccccc12)=C1/CN2CCC1CC2 | > 46 µM
Nc1nc(Cl)nc2c1ncn2C1CC(O)C(CO)O1 (stereo not drawn) | > 46 µM
NC1CCN(c2cccc(Cl)n2)CC1 | > 46 µM
O=C1c2ccccc2-c2n[nH]c3cccc1c23 | > 46 µM
O=C1CC2(CCCC2)CC(=O)N1CCNCC1COc2ccccc2O1 (stereo not drawn) | > 46 µM
O=C(O)CN(CCOCCOCCN(CC(=O)O)CC(=O)O)CC(=O)O | > 46 µM
O=C(O)[C@H]1C[C@@H](CP(=O)(O)O)CCN1 | > 46 µM
O=C(O)/C=C\C(=O)O.O=C(O)/C=C\C(=O)O.c1cc(CN2CCCCC2)cc(OCCCNc2nc3ccccc3s2)c1 | > 46 µM
OC(CN1CCCCC1)c1cc(-c2ccccc2)on1 (stereo not drawn) | > 46 µM
C1CCNCC1.Oc1ncnc2[nH]cc(CN3CCCCC3)c12 | > 46 µM

Compound | IC50 of cell viability
C=C(NCc1ccccc1)c1ccccc1O | > 46 µM
O=C(NOCC(O)CO)c1ccc(F)c(F)c1Nc1ccc(I)cc1F (stereo not drawn) | > 46 µM
O=C(O)CCCO | > 46 µM
NCCO/C=C/C(N)C(=O)O (stereo not drawn) | > 46 µM
C[C@H](O)CN(C)C | > 46 µM
CCOC(=O)C(CS)NCCN[C@@H](CS)C(=O)OCC (stereo partly drawn) | > 46 µM
C=Cc1ccc(S(=O)(=O)[O-])cc1 | > 46 µM
CNC[C@H](O)c1ccc(O)cc1 (racemic) [(+,-)-Synephrine] | > 46 µM
O=C1CCC(N2C(=O)c3ccccc3C2=O)C(=O)N1 (racemic) [(+-)-Thalidomide] | > 46 µM
COc1cc(CC(C)N)c(OC)cc1Br (racemic) [(±)-2,5-Dimethoxy-4-bromoamphetamine hydrobromide] | > 46 µM
CC(N)Cc1ccc2c(c1)OCO2 (racemic) [(±)-3,4-Methylenedioxyamphetamine hydrochloride] | > 46 µM
CCCCCC(O)/C=C/C=O (racemic) [(±)-4-Hydroxynon-2-enal] | > 46 µM
COCCc1ccc(OCC(O)CNC(C)C)cc1 (racemic) [(±)-Metoprolol (+)-tartrate salt] | > 46 µM
NCC(O)c1ccc(O)cc1 (racemic) [DL-OCTOPAMINE] | > 46 µM
O=C(O)[C@@H]1CCCN1 (racemic) [DL-Proline] | > 46 µM
Cl.NCCCC(N)(C(=O)O)C(F)F (racemic) [DL-alpha-Difluoromethylornithine hydrochloride] | > 46 µM
CCCCCCCCCCCCCCC[C@H](O)[C@H](N)CO (racemic) [DL-erythro-Dihydrosphingosine] | > 46 µM
COCCc1ccc(OC[C@H](O)CNC(C)C)cc1.COCCc1ccc(OC[C@H](O)CNC(C)C)cc1.O=C(O)[C@@H](O)[C@@H](O)C(=O)O (racemic) [Metoprolol-(+,-) (+)-tartrate salt] | > 46 µM
CC(=O)N[C@@H]1CCSC1=O (racemic) [N-Acetyl-DL-homocysteine Thiolactone] | > 46 µM
CC1=CCC(C(C)(C)O)CC1 (racemic) [Terpineol, mixture of isomers] | > 46 µM
CC\1=C(/CCN2CCC(CC2)C3=NOC4=C3C=CC(=C4)F)C(=O)[N@@]\5CCC[C@H](O)C5=N1 (racemic) [rac 9-Hydroxy Risperidone] | > 46 µM
